# Source: PMC6697681, “The predominance of nucleotidyl activation in bacterial phosphonate biosynthesis” (Nature Communications, 2019)
# Experiments:
# Tde-PntC (Tde1415) [1] = molecular target: T1, Tde-PntC (Tde1415) (Treponema denticola, UniProt Q73MU2); experiment: X-ray crystal structure; assay type: binding; settings: AEPT domain, non-covalently bound PLP
# T1 construct: full two-domain protein (N-terminal PntC, C-terminal AEPT), C-terminal His tag, pET21b (pGH3000), E. coli BL21(DE3); ~70 kDa monomer, dimer ~146 kDa by DLS
# T1 sequence (Q73MU2 whole entry, the tested form may be a part): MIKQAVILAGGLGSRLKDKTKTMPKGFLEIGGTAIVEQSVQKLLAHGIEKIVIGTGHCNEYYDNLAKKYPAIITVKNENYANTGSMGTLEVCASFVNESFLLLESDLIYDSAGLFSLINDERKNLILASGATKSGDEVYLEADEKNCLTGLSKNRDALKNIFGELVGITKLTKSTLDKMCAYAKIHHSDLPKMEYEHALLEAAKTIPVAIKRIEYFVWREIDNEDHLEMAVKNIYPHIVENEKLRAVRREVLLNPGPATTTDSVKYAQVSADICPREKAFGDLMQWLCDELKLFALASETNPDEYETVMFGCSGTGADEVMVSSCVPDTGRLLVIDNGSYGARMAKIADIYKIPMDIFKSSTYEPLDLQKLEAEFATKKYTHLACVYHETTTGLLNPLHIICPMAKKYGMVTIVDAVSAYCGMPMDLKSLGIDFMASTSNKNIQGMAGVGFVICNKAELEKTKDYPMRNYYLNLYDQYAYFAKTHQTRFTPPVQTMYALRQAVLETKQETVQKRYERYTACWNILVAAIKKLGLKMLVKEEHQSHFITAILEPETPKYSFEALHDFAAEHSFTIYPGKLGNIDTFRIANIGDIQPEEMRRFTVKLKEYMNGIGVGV
# Tde-PntC (Tde1415) [2] = molecular target: T1, Tde-PntC (Tde1415); experiment: X-ray crystal structure, […] Å; assay type: binding; settings: PntC active site, two Mg2+; crystallised with 5 mM CTP and 5 mM AEP
# Ari-PntC (Ari1348) = molecular target: T2, Ari-PntC (Ari1348) (Lancefieldella rimae, UniProt B9CM12); experiment: coupled pyrophosphate release assay (EnzChek, MESG/PNP), initial rates; assay type: biochemical; settings: substrate inhibition constant; saturating CTP (4 mM), 7 mM MgCl2, room temperature
# T2 construct: codon-optimized gene in pET29 (pGH2000), C-terminal His6 tag, E. coli BL21(DE3), Ni-NTA and anion exchange; monomer by DLS
# T2 sequence (B9CM12 whole entry): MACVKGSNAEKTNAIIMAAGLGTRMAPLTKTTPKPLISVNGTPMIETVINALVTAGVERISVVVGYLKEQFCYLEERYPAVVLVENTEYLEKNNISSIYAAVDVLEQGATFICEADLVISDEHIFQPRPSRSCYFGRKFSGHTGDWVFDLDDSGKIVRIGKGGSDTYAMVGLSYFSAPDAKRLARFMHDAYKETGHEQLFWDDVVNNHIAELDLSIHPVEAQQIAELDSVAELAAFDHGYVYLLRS
# Source text: coupled pyrophosphate release assay (EnzChek, MESG/PNP), initial rates on Ari-PntC (Ari1348)
# Spn-LicC = molecular target: T3, Spn-LicC (Streptococcus pneumoniae, UniProt Q8DPI6); experiment: as above; assay type: biochemical; settings: substrate inhibition constant; saturating CTP (4 mM), 7 mM MgCl2, room temperature
# T3 construct: monomer by DLS
# T3 sequence (Q8DPI6 whole entry): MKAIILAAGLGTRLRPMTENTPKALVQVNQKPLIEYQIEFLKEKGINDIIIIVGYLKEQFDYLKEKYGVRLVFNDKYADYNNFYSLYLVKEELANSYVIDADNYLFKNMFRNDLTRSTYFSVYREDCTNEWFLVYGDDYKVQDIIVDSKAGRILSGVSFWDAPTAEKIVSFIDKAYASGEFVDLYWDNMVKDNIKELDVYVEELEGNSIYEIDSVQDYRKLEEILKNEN
# Source text: coupled pyrophosphate release assay (EnzChek, MESG/PNP), initial rates on Spn-LicC
smiles,measurement,setting,value
Cc1ncc(COP(=O)(O)O)c(C=O)c1O [PLP],X-ray crystal structure,Tde-PntC (Tde1415) [1],The AEPT domain of Tde1415 possesses PLP and the requisite active site features
NCCP(=O)(O)OP(=O)(O)OC[C@H]1O[C@@H](n2ccc(N)nc2=O)[C@H](O)[C@@H]1O [CMP-AEP],"X-ray crystal structure, 1.95 Å",Tde-PntC (Tde1415) [2],Tde1415 and Tde1415:CMP-AEP have been deposited in the Protein Data Bank
C[N+](C)(C)CCOP(=O)([O-])O [P-Cho],KS,Ari-PntC (Ari1348),4 ± 1 mM
same,KS,Spn-LicC,6.4 ± 0.9 mM
